Reference: patent EP4417202A1, “ANTI-CANCER ACTION OF BAG1-SELECTIVE IMIDAZOPYRIDINE COMPOUNDS IN STEROID HORMONE RECEPTOR-POSITIVE BREAST AND PROSTATE CANCER” (Karlsruher Institut für Technologie, priority 2023, dated 2024)

Key:
[1] = system: LAPC-4 cells; experiment: FACS cell cycle analysis; type: cell-based; conditions: 1 µM, 48 h, DRAQ5
Procedure: (§1) LNCaP, LAPC-4, MCF-7 and T47D cells were treated with 1 µM X15695 or DMSO for 48 h. Single cell suspensions (1×10^6 cells) were prepared in 150 µl PBS/10% FBS. Cells were fixed by addition of 5 ml ice-cold ethanol (70%) and over-night incubation at 4°C. Fixed LNCaP and LAPC-4 cells were stained with 20 µM DRAQ5 (5mM stock, Thermo Fisher Scientific) and incubated for 15 min at room temperature. Fixed MCF-7 and T47D cells were resuspended in PBS at concentration of 1×10^6 cells/100 µl and stained by addition of 5 µl of 7-AAD (BD Bioscience, San Diego, CA, USA) for 15 min at room temperature in the dark. Flow cytometry analysis was performed using BD FACSAria (BD Biosciences, Franklin Lakes, NJ, USA). Doublets and dead cells were excluded from the analysis. Flow cytometry data were analyzed using FlowJo 10.8.1 cytometry analysis software (FlowJo, LLC).

[2] = system: MCF-7 cells; experiment: FACS cell cycle analysis; type: cell-based; conditions: 1 µM, 48 h, 7-AAD
Procedure: as §1

[3] = system: LNCaP cells; experiment: FACS cell cycle analysis; type: cell-based; conditions: 1 µM, 48 h, DRAQ5
Procedure: as §1

[4] = system: T47D cells; experiment: FACS cell cycle analysis; type: cell-based; conditions: 1 µM, 48 h, 7-AAD
Procedure: as §1

[5] = system: LAPC-4 tumors; experiment: Mouse xenograft experiment, LAPC-4; type: in vivo; conditions: LAPC-4 xenograft, 42 days
Procedure: MCF-7 and LAPC-4 cells (2×10^6) were suspended in 100 µl PBS: Matrigel (Corning NY USA, 1:1) and injected subcutaneously into both flanks of 6-7 weeks old female (for MCF-7 cells) and male (for LAPC-4 cells) athymic nude-Foxn1^nu mice (Envigo RMS GmbH, Düsseldorf, Germany). When tumor volumes were around 50 to100 mm^3, mice were randomized into four groups (7 mice per group) and treated daily by oral gavage as follows: (1) Control group (Vehicle) (corn oil, 1.0% dimethyl sulfoxide (DMSO) and (2) X15695 group, 30 mg per kg body weight) for the MCF-7 tumors or (1) Control group (Vehicle) (corn oil, 1.0% dimethyl sulfoxide (DMSO) ([…]), (3) X15695 group, 30 mg per kg body weight) and, (4) X15695 group (15 mg per kg body weight) for the LAPC-4 tumors. Body weight and tumor volumes were measured twice a week. Tumor volume was measured with a digital vernier caliper and calculated using the formula vol = length × width × height × 0.5236 and recorded or calculated relative to the starting volume which was nominally set at 100%. After 16 days for the MCF-7 tumors or 42 days for the LAPC-4 tumors, mice were sacrificed and the tumors removed, photographed, and weighed. Percent body weight change was calculated using the following formula: group percent weight change = [(new weight - initial weight)/initial weight] × 100]. Tumors were snap-frozen and stored for Western blot analysis.

[6] = system: ERα response genes; experiment: Quantitative RT-PCR of ERα response genes in MCF-7 and T47D cells; type: cell-based; conditions: 1 µM, 10 nM E2, 16 h
Procedure: (§2) MCF-7, T47D and LNCaP cells (5×10^4 each) were seeded in 6-well plates and cultured with hormone-depleted medium for 3 days. Subsequently, the MCF-7 and T47D cells were treated with 10 nM 17-β-estradiol (E2) or dihydrotestosterone (DHT) for the LNCaP cells, 1 µM) X15695 (for the MCF-7 and T47D cells) or 5 µM) for LNCaP cells and X15695 together with E2 or DHT. A 1 h pre-treatment with X15695 was performed prior to treatment with E2 or DHT for 16 h. RNA was extracted using innuPREP RNA mini Kit 2.0 (Analytic Jena, Berlin, Germany). 1 µg RNA per sample was used as input material for the RNA sample preparations. Sequencing libraries were generated using NEBNext® UltraTM RNA Library Prep Kit for Illumina® (NEB, USA) following the manufacturer's recommendations and index codes were added to attribute sequences to each sample. The clustering of the index-coded samples was performed on a cBot Cluster Generation System using PE Cluster Kit cBot-HS (Illumina) according to the manufacturer's instructions. After cluster generation, the library preparations were sequenced on an Illumina platform and paired-end reads were generated. Library preparation and sequencing were carried out by Novogene Europe, Cambridge, UK. […] Select target genes were analyzed by RT-PCR experiments with RNA from the samples used for the RNA-seq analysis. […]

[7] = system: p53/mortalin complex; experiment: Co-immunoprecipitation in MCF-7 cells; type: cell-based; conditions: 1 µM, 48 h
Procedure: (§3) Cells were harvested, washed with PBS, and lysed using NP-40 lysis buffer. Protein A agarose beads (Thermo Fisher Scientific) were mixed with protein G agarose beads (Thermo Fisher Scientific) (4:1) and preincubated overnight at 4°C with anti-p53 or anti-BAG1 or control IgG antibody. Cellular extracts from X15695 treated and untreated cells (1,000 µg) were incubated with antibody-preincubated protein A/G agarose beads for 3 to 4 h at room temperature. The beads with immunoprecipitated proteins were collected at 4°C by centrifugation at 1,000 g for 5 min and washed 4 to 5 times with NP-40 lysis buffer. The immunoprecipitated proteins were eluted by heating in SDS sample buffer for 5 min at 95°C and resolved on SDS-PAGE. Thereafter, they were subjected to Western blot analysis to detect mortalin, BAG1, BAG2, BAG5 and p53. Cellular extracts containing 50 to 70 µg protein from X15695 treated and untreated cells were used as the input control for the targeted proteins.

[8] = system: BAG1 in a complex with mortalin; experiment: Co-immunoprecipitation in MCF-7 cells; type: cell-based; conditions: 1 µM, 48 h
Procedure: as §3

[9] = system: AR target gene expression; experiment: Quantitative RT-PCR of AR target genes in LNCaP cells; type: cell-based; conditions: 10 nM DHT, 16 h, compared among the six selected imidazopyridines
Procedure: as §2

## Fc1ccc(-c2cn3cc(C(F)(F)F)cc(Cl)c3n2)cc1 [Compound X15695, 8-Chloro-2-(4-fluorophenyl)-6-(trifluoromethyl)imidazo[1,2-a]pyridine]
[1]
  cell cycle arrest: G2/M arrest
[2]
  cell cycle arrest: G1/S phase arrest
[3]
  cell cycle arrest: G1/S phase arrest
[4]
  cell cycle arrest: G2/M cell cycle arrest
[5]; oral 30 mg/kg/day, less effective than enzalutamide (10 mg/kg/day)
  tumor growth: effectively inhibit tumor growth over vehicle
[5]; oral
  tolerability, body weight: well tolerated during the study and no sign of toxicity or weight loss was observed
[6]
  E2-mediated gene expression: downregulation of E2-mediated gene expression
[7]
  p53-mortalin interaction: decreased this interaction
[8]
  BAG1-mortalin interaction: indeed decreased this interaction
[9]
  attenuation of androgen-induced AR target gene expression: the compound with the most inhibitory activity
